Results published in US20240374626A1, “METHODS OF ENHANCING MILK PRODUCTION IN LACTATING MAMMALIAN SUBJECTS” (priority 2023, published 2024).

System: Wee1
Experiment: Contralateral intraductal injection: Wee1 expression in whole MG tissue by RT-qPCR
Type: in vivo, mouse
Conditions: IDI of doxorubicin into pregnant MG vs contralateral DMSO
Method: Nulliparous analysis was performed using adult (10-12-week-old) female mice. For timed pregnancies and lactation analysis, CD-1 pregnant adult females were obtained from Charles Rivers. Embryos were examined at the time of mammary gland harvesting to confirm pregnancy state. […] Plugged mice were considered to be PD0.5 on the day of the observed plug. All females used in this study were age matched.
Mice were anesthetized with isoflurane (VetOne, 501017) Prior to intraductal injections, hair was removed from around the nipples using Nair hair remover. Injections into the duct of the nipple were performed with 33 G needles (Hamilton, 7803-05) and a volume of 40 μl per gland. […]
For RNA isolation from FACS purified populations, mammary gland cell suspensions were blocked using Mouse BD Fc Block™ (BD Biosciences) for 10 min. […] Total RNA quality was analyzed by agarose gel electrophoresis and quantified using an ND-1000 spectrophotometer (NanoDrop). cDNA was prepared from 500-1000 ng of total RNA using iScript cDNA synthesis kit (Bio-Rad, 1708841). Quantitative RT-qPCR was performed in triplicates using SsoAdvanced Universal SYBR Green Supermix, (Bio-Rad, 1725272). […]

For `COc1cccc2c1C(=O)c1c(O)c3c(c(O)c1C2=O)C[C@@](O)(C(=O)CO)C[C@@H]3O[C@H]1C[C@H](N)[C@H](O)[C@H](C)O1` [doxorubicin], the “Wee1 expression in whole MG tissue, RT-qPCR” value was “upregulated”.
